Measured values from ChEMBL document CHEMBL5252629, “The protein disulfide isomerase inhibitor 3-methyltoxoflavin inhibits Chikungunya virus” (Bioorg Med Chem, 2023).
≈ marks a conversion by molar mass, not a printed value.

Legend:
Chikungunya virus [1] = experiment: Antiviral activity against CHIKV infected in hamster BHK-21 cells assessed as inhibition of viral replication at 20 uM measured after 48 hrs by renilla luciferase assay relative to control; format: functional; design: scale not given: the % may be the effect or the level left
Chikungunya virus [2] = experiment: Antiviral activity against CHIKV infected in human foreskin fibroblast cells; format: functional, organism-based
Chikungunya virus [3] = experiment: Antiviral activity against CHIKV infected in hamster BHK-21 cells assessed as inhibition of viral replication measured after 48 hrs by gaussia luciferase assay; format: functional, organism-based; conditions: BHK-21, 48 h
[4] = Selectivity index, ratio of CC50 for hamster BHK-21 cells to EC50 for CHIKV infected in hamster BHK-21 cells; format: toxicity, cell-based; conditions: read-out: Ratio CC50/EC50
[5] = (§1) Cytotoxicity against hamster BHK-21 cells assessed as reduction in cell viability measured after 48 hrs by MTT assay; format: toxicity, cell-based, Mesocricetus auratus; conditions: BHK-21 cells
Chikungunya virus [6] = experiment: Antiviral activity against CHIKV infected in African green monkey Vero cells; format: functional, organism-based
Chikungunya virus [7] = experiment: Antiviral activity against CHIKV infected in hamster BHK-21 cells; format: functional, organism-based
Chikungunya virus [8] = experiment: Antiviral activity against CHIKV S27 infected in Vero 76 cells assessed as reduction in cytopathic effect; format: functional; conditions: S27, Vero 76
[9] = Apparent permeability of the compound across apical side to basolateral side in human Caco-2 cells; format: ADME, cell-based
[10] = Inhibition of N-terminal His-tagged human PDI expressed in Escherichia coli BL21 (DE3) incubated for 1 hr
[11] = Metabolic stability in mouse liver microsomes assessed as intrinsic clearance at 100 uM preincubated for 5 mins followed by NADPH addition and measured upto 60 mins by LCMS analysis; format: ADME, Microsome; conditions: time < 65 min, read-out: CLH
[12] = Selectivity index, ratio of CC50 for human Huh-7 cells to EC50 for CHIKV S27 infected in Huh-7 cells; format: toxicity, cell-based; conditions: read-out: Ratio CC50/EC50
[13] = Selectivity index, ratio of CC50 for human Huh-7 cells to EC50 for Yellow fever virus 17D assessed as reduction in cytopathic effect by neutral red staining based analysis; format: toxicity; conditions: read-out: Ratio CC50/EC50
[14] = Kinetic solubility of the compound in buffer at pH 7.4 by LCMS analysis; format: physicochemical; conditions: read-out: Kinetic_solubility
Yellow fever virus [15] = experiment: Antiviral activity against Yellow fever virus 17D infected in Huh-7 cells assessed as reduction in cytopathic effect by neutral red staining based analysis; format: functional, organism-based
Vero 76 = experiment: Cytotoxicity against African green monkey Vero 76 cells assessed as reduction in cell viability incubated for 48 hrs by MTT assay; format: toxicity, cell-based; conditions: chlorocebus sabaeus, vero 76, 48 h
Chikungunya virus [16] = experiment: Antiviral activity against CHIKV S27 infected in Huh-7 cells assessed as reduction in cytopathic effect by neutral red staining based analysis; format: functional, organism-based; conditions: S27, Huh-7
Yellow fever virus [17] = experiment: Antiviral activity against Yellow fever virus 17D infected in Huh-7 cells assessed as reduction in cytopathic effect; format: functional, organism-based
[18] = Apparent permeability of the compound across apical side to basolateral side in human Caco-2 cells assessed as drug recovery; format: ADME, cell-based
HepG2 = experiment: Cytotoxicity against human HepG2 cells assessed as reduction in cell viability measured after 48 hrs by MTT assay; format: functional
Chikungunya virus [19] = experiment: Antiviral activity against CHIKV S27 infected in Vero 76 cells assessed as reduction in cytopathic effect by neutral red staining based analysis; format: functional, organism-based; conditions: S27, Vero 76
Huh-7 [20] = experiment: Cytotoxicity against human Huh-7 cells infected with yellow fever virus assessed as reduction in cell viability incubated for 48 hrs by MTT assay; format: functional
Chikungunya virus [21] = experiment: Antiviral activity against CHIKV S27 infected in Huh-7 cells assessed as reduction in cytopathic effect; format: functional, organism-based; conditions: S27, Huh-7
[22] = Apparent permeability of the compound across basolateral side to apical side in human Caco-2 cells assessed as drug recovery; format: ADME, cell-based
[23] = Kinetic solubility of the compound in FaSSGF at pH 1.2 by LCMS analysis; format: ADME; conditions: read-out: Kinetic_solubility
[24] = Selectivity index, ratio of CC50 for human Huh-7 cells to EC50 for CHIKV S27 infected in Huh-7 cells assessed as reduction in cytopathic effect by neutral red staining based analysis; format: toxicity, cell-based; conditions: read-out: Ratio CC50/EC50
BHK-21 = experiment: as §1; format: toxicity, cell-based, Mesocricetus auratus; conditions: bhk-21, 48 h
Huh-7 [25] = experiment: Cytotoxicity against human Huh-7 cells assessed as reduction in cell viability incubated for 48 hrs by MTT assay; format: functional
[26] = Metabolic stability in human liver microsomes assessed as hepatic clearance preincubated for 5 mins followed by NADPH addition and measured after 20 mins by LCMS analysis; format: ADME, Microsome; conditions: time 25 min
[27] = Kinetic solubility of the compound in FaSSIF at pH 6.8 by LCMS analysis; format: ADME; conditions: read-out: Kinetic_solubility
Huh-7 [28] = experiment: Cytotoxicity against human Huh-7 cells assessed as reduction in cell viability measured after 48 hrs by MTT assay; format: functional
[29] = Selectivity index, ratio of CC50 for human Huh-7 cells to EC50 for Yellow fever virus 17D; format: toxicity; conditions: read-out: Ratio CC50/EC50
Chikungunya virus [30] = experiment: Antiviral activity against CHIKV infected in […] Huh-7 cells; format: functional, organism-based
Chikungunya virus [31] = experiment: Antiviral activity against CHIKV-ZsGreen infected in African green monkey Vero incubated for 24 hrs by flow cytometry analysis; format: functional, organism-based

SMILES: C[C@@H]1C[C@H]2[C@@H]3CCC4=CC(=O)C=C[C@]4(C)[C@@]3(F)[C@@H](O)C[C@]2(C)[C@@]1(O)C(=O)CO [DEXAMETHASONE]
- Activity (Chikungunya virus [1]): 70.9%

SMILES: CC(=O)c1ccc(S(=O)(=O)NC(=O)NC2CCCCC2)cc1 [ACETOHEXAMIDE]
- Activity (Chikungunya virus [1]): 100%

SMILES: Cc1cc(C)nc(NS(=O)(=O)c2ccc(NC(=O)CN3C(=O)C4CC=CCC4C3=O)cc2)n1 (stereo not drawn)
- Activity (Chikungunya virus [1]): 100%

SMILES: O=C(O)c1nc(=O)[nH]c2ccccc12
- IC50 (Chikungunya virus [2]): 23 µM

SMILES: Cc1cc([N+](=O)[O-])ccc1-c1ccc(C2N=C(O)c3c(sc4c3CCN(C)C4)N2)o1 (stereo not drawn)
- Activity (Chikungunya virus [1]): 100%

SMILES: COc1c(O)cc2c(c1O)[C@@H]1O[C@H](CO)[C@@H](O)[C@H](O)[C@H]1OC2=O [BERGENIN]
- Activity (Chikungunya virus [1]): 100%

SMILES: CCCCN(CCCC)CC(O)c1cc(Cl)cc2c1-c1ccc(Cl)cc1/C2=C/c1ccc(Cl)cc1 (stereo not drawn) [LUMEFANTRINE]
- Activity (Chikungunya virus [1]): 100%

SMILES: C=CCN1CC[C@]23c4c5ccc(O)c4O[C@H]2C(=O)CC[C@@]3(O)[C@H]1C5 [NALOXONE]
- Activity (Chikungunya virus [1]): 121.5%

SMILES: Clc1ccc2c(N3CCN(CCCN4CCN(c5ccnc6cc(Cl)ccc56)CC4)CC3)ccnc2c1 [PIPERAQUINE]
- Activity (Chikungunya virus [1]): 138.1%

SMILES: CCCCCCCCCCC[C@@H](C[C@@H]1OC(=O)[C@H]1CCCCCC)OC(=O)[C@H](CC(C)C)NC=O [ORLISTAT]
- Activity (Chikungunya virus [1]): 48.7%

SMILES: O=C1CC(c2ccc(S(=O)(=O)Nc3ccccc3C(=O)Nc3ccc(F)cc3)cc2)CN1 (stereo not drawn)
- Activity (Chikungunya virus [1]): 100%

SMILES: NC(=O)C1(N2CCCCC2)CCN(CCCC(=O)c2ccc(F)cc2)CC1 [PIPAMPERONE]
- Activity (Chikungunya virus [1]): 102.9%

SMILES: O=P(O)(O)C(O)(Cc1cccnc1)P(=O)(O)O [RISEDRONIC ACID]
- Activity (Chikungunya virus [1]): 86.7%

SMILES: CN1[C@@H]2CC[C@H]1C[C@@H](OC(=O)C(CO)c1ccccc1)C2 (stereo partly drawn) [ATROPINE]
- Activity (Chikungunya virus [1]): 149.2%

SMILES: CC(C)=CCC/C(C)=C/Cc1c(O)ccc(C(=O)/C=C/c2ccc(O)cc2)c1O [XANTHOANGELOL]
- EC50 (Chikungunya virus [3]): 7.1 µM
- selectivity ratio [4]: 1.7
- Activity (Chikungunya virus [1]): 8.4%
- CC50 at 48 h [5]: 11.8 µM

SMILES: O=C1OC(CN2CCOCC2)CN1/N=C/c1ccc([N+](=O)[O-])o1 (stereo not drawn) [FURALTADONE]
- Activity (Chikungunya virus [1]): 20.4%

SMILES: C=CCc1ccc(OC)cc1 [ESTRAGOLE]
- Activity (Chikungunya virus [1]): 100%

SMILES: C=CCc1ccc(O)c(OC)c1 [EUGENOL]
- Activity (Chikungunya virus [1]): 100%

SMILES: OCCN1CCN(CCCN2c3ccccc3Sc3ccc(C(F)(F)F)cc32)CC1 [FLUPHENAZINE]
- Activity (Chikungunya virus [1]): 11.6%

SMILES: CCN(CC)CCOc1ccc2c(c1)C(=O)c1cc(OCCN(CC)CC)ccc1-2 [TILORONE]
- Activity (Chikungunya virus [1]): 100%
- EC50 (Chikungunya virus [6]): 4.2 µM

SMILES: CCC(C)n1ncn(-c2ccc(N3CCN(c4ccc(OCC5COC(Cn6cncn6)(c6ccc(Cl)cc6Cl)O5)cc4)CC3)cc2)c1=O (stereo not drawn) [ITRACONAZOLE]
- EC50 (Chikungunya virus [7]): 0.32 µM

SMILES: Cc1nc2c(=O)n(C)c(=O)nc-2n(C)n1
- EC90 (Chikungunya virus [8]): > 1.7 µM
- Papp [9]: 17.8 10^-6 cm/s
- IC50 [10]: 0.17 µM
- microsomal CLint at 100 µM [11]: 7.4 µL/min/mg
- selectivity ratio [12]: 17
- selectivity ratio [13]: 2.9
- solubility kinetic [14]: 400 µM (≈ 82.8 µg/mL)
- EC50 (Yellow fever virus [15]): 0.42 µM
- CC50 (Vero 76): 1.7 µM
- EC50 (Chikungunya virus [16]): < 0.1 µM
- EC50 (Yellow fever virus [17]): 0.37 µM
- Drug recovery [18]: 103%
- EC50 (Chikungunya virus [3]): 0.2 µM
- selectivity ratio [4]: 30.8
- Activity (Chikungunya virus [1]): 2%
- CC50 (HepG2): 11 µM
- EC50 (Chikungunya virus [19]): > 1.7 µM
- CC50 (Huh-7 [20]): 1.2 µM
- EC50 (Chikungunya virus [21]): 0.19 µM
- Drug recovery [22]: 93.5%
- solubility kinetic [23]: 424 µM (≈ 87.7 µg/mL)
- selectivity ratio [24]: > 11
- CC50 (BHK-21): 6.2 µM
- CC50 (Huh-7 [25]): 1.1 µM
- CLhep predicted [26]: < 6.1 mL/min/kg
- solubility kinetic [27]: 228 µM (≈ 47.1 µg/mL)
- CC50 (Huh-7 [28]): 3.2 µM
- selectivity ratio [29]: 3.2

SMILES: O=C(O)c1ccc(S(=O)(=O)Nc2ccc(S(=O)(=O)Nc3ccccn3)cc2)cc1
- Activity (Chikungunya virus [1]): 100%

SMILES: Cc1nnc(C(=O)NC(C)(C)c2nc(C(=O)NCc3ccc(F)cc3)c(O)c(=O)n2C)o1 [RALTEGRAVIR]
- Activity (Chikungunya virus [1]): 58.9%

SMILES: O=C(CCCN1CCC(O)(c2ccc(Cl)cc2)CC1)c1ccc(F)cc1 [HALOPERIDOL]
- Activity (Chikungunya virus [1]): 40.5%

SMILES: COc1ccc(C(=O)/C=C/c2ccc(O)cc2)c(O)c1CC=C(C)C
- Activity (Chikungunya virus [1]): 13.5%

SMILES: Cn1c(=O)[nH]c2ccc(S(=O)(=O)NCCCOC34CC5CC(CC(C5)C3)C4)cc2c1=O
- Activity (Chikungunya virus [1]): 100%

SMILES: CCN(CC)CCCC(C)Nc1c2ccc(Cl)cc2nc2ccc(OC)cc12 (stereo not drawn) [QUINACRINE]
- EC50 (Chikungunya virus [3]): 12 µM
- selectivity ratio [4]: 1.6
- Activity (Chikungunya virus [1]): 12.5%
- CC50 at 48 h [5]: 19.8 µM

SMILES: CCCCCc1c2c(cc(O)c1C(=O)O)OC(=O)c1c(cc(OC)cc1C(=O)CCCC)O2 [LOBARIC ACID]
- EC50 (Chikungunya virus [30]): 5.3 µM

SMILES: CN(C)CCCN1c2ccccc2Sc2ccccc21 [PROMAZINE]
- Activity (Chikungunya virus [1]): 18%

SMILES: OC(CNC1CCN(Cc2ccccc2)CC1)COc1ccccc1 (stereo not drawn)
- EC50 (Chikungunya virus [31]): 1.6 µM

SMILES: O=C1Cc2cc(CCN3CCN(c4nsc5ccccc45)CC3)c(Cl)cc2N1 [ZIPRASIDONE]
- Activity (Chikungunya virus [1]): 101%

SMILES: CCN(CC)Cc1cc(Nc2ccnc3cc(Cl)ccc23)ccc1O [AMODIAQUINE]
- Activity (Chikungunya virus [1]): 19%

SMILES: O=C(C1CC1)N1CCN(Cn2sc3ccccc3c2=O)CC1
- Activity (Chikungunya virus [1]): 14%

SMILES: CC(C)n1ncc2c1N=C(O)CC2c1ccc(-c2ccc(C(=O)O)cc2)o1 (stereo not drawn)
- Activity (Chikungunya virus [1]): 100%

SMILES: NC(=O)C1CCN(c2nc3c(c(=O)[nH]2)C(C(=O)Nc2ccccc2Cl)CC(=O)N3)CC1 (stereo not drawn)
- Activity (Chikungunya virus [1]): 140%

SMILES: Cc1nc(C)c(CN2CCCC(C(=O)Nc3cccc(-n4cnnn4)c3)C2)nc1C (stereo not drawn)
- Activity (Chikungunya virus [1]): 100%

SMILES: OCc1ccccc1O[C@@H]1O[C@H](CO)[C@@H](O)[C@H](O)[C@H]1O [SALICIN]
- Activity (Chikungunya virus [1]): 100%

SMILES: c1ccc2c(c1)Nc1ccccc1S2 [PHENOTHIAZINE]
- Activity (Chikungunya virus [1]): 73.7%
